Where “and” joins values, the source holds several entries; their conditions need not be identical. Identical values can stand only once. Toxic doses and inconclusive results are not listed. No stated cut-off is given here; in the data, active means T/C of 150% or more; inactive means T/C below 125%. Peptide text beside a SMILES is read from it. * marks the point of attachment. Cbz = O=C(OCc1ccccc1)*; OBn = c1ccc(CO*)cc1; Bn = c1ccc(C*)cc1
Test system: L1210 leukemia ip in BDF1 mice, survival T/C
Assay: NCI In Vivo Anticancer Drug Screen. Data for tumor model L1210 Leukemia (intraperitoneal) in B6D2F1 (BDF1) mice
Details: endpoint: mean survival time, higher = longer survival
How it was run: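 In this screen, tumor-bearing mice given compound are compared to those given vehicle, and their survival values are reported as a treated-to-control quotient.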

[1] = dose: 100.0 mg/kg/injection, schedule: Q04DX003 (ip), vehicle: saline
[2] = dose: 200.0 mg/kg/injection, schedule: Q04DX003 (ip), vehicle: saline
[3] = dose: 400.0 mg/kg/injection, schedule: Q04DX003 (ip), vehicle: saline
[4] = dose: 100.0 mg/kg/injection, schedule: Q04DX002 (ip), vehicle: Klucel (hydroxypropylcellulose) (HPC)
[5] = dose: 100.0 mg/kg/injection, schedule: Q04DX003 (ip), vehicle: Klucel (hydroxypropylcellulose) (HPC)
[6] = dose: 200.0 mg/kg/injection, schedule: Q04DX003 (ip), vehicle: Klucel (hydroxypropylcellulose) (HPC)

Measured: T/C

CCCC/C=C/C#N
inactive: dose: 75.0 mg/kg/injection, schedule: Q01DX009 (ip), vehicle: saline 100 % of control | dose: 100.0 mg/kg/injection, schedule: Q01DX001 (ip), vehicle: saline 106 % of control | [1] 98 % of control | dose: 150.0 mg/kg/injection, schedule: Q01DX009 (ip), vehicle: saline 97 % of control | dose: 200.0 mg/kg/injection, schedule: Q01DX001 (ip), vehicle: saline 96 % of control | [2] 101 % of control | dose: 400.0 mg/kg/injection, schedule: Q01DX001 (ip), vehicle: saline 92 % of control | [3] 94 % of control

NCc1cccc(NC(=O)COc2cccc(Cl)c2)c1
inactive: dose: 25.0 mg/kg/injection, schedule: Q04DX002 (ip), vehicle: Klucel (hydroxypropylcellulose) (HPC) 100 % of control | dose: 50.0 mg/kg/injection, schedule: Q04DX002 (ip), vehicle: Klucel (hydroxypropylcellulose) (HPC) 111 % of control | [4] 100 % of control

Cc1cccc2nc(-c3ccccc3)ccc12
inactive: dose: 6.0 mg/kg/injection, schedule: Q01DX009 (ip), vehicle: other 100 % of control | dose: 12.0 mg/kg/injection, schedule: Q01DX009 (ip), vehicle: other 92 % of control | dose: 12.0 mg/kg/injection, schedule: Q04DX003 (ip), vehicle: saline 92 % of control | dose: 25.0 mg/kg/injection, schedule: Q01DX009 (ip), vehicle: other 94 % of control | dose: 25.0 mg/kg/injection, schedule: Q04DX003 (ip), vehicle: saline 98 % of control

S=C=NCc1cccc(CN=C=S)c1
inactive: dose: 6.25 mg/kg/injection, schedule: Q01DX009 (ip), vehicle: saline with Tween-80 103 % of control

O=C(N/N=C/c1ccc(Cl)cc1Cl)C(O)C(O)C(O)C(O)CO (stereo unspecified)
inactive: dose: 12.5 mg/kg/injection, schedule: Q04DX003 (ip), vehicle: saline with Tween-80 105 % of control | dose: 25.0 mg/kg/injection, schedule: Q04DX003 (ip), vehicle: saline with Tween-80 101 % of control | dose: 50.0 mg/kg/injection, schedule: Q01DX001 (ip), vehicle: saline with Tween-80 91 % of control | dose: 50.0 mg/kg/injection, schedule: Q01DX009 (ip), vehicle: saline with Tween-80 90 % of control | dose: 50.0 mg/kg/injection, schedule: Q04DX003 (ip), vehicle: saline with Tween-80 96 % of control and 92 % of control | dose: 100.0 mg/kg/injection, schedule: Q01DX001 (ip), vehicle: saline with Tween-80 104 % of control | dose: 100.0 mg/kg/injection, schedule: Q04DX002 (ip), vehicle: saline with Tween-80 92 % of control | dose: 200.0 mg/kg/injection, schedule: Q01DX001 (ip), vehicle: saline with Tween-80 90 % of control | dose: 200.0 mg/kg/injection, schedule: Q04DX002 (ip), vehicle: saline with Tween-80 86 % of control | dose: 400.0 mg/kg/injection, schedule: Q04DX002 (ip), vehicle: saline with Tween-80 97 % of control

CCOC(=O)Oc1c(Cl)cc(S(=O)(=O)F)cc1Cl
inactive: dose: 100.0 mg/kg/injection, schedule: Q04DX003 (ip), vehicle: carboxymethylcellulose (CMC) 101 % of control | dose: 200.0 mg/kg/injection, schedule: Q04DX003 (ip), vehicle: carboxymethylcellulose (CMC) 108 % of control | dose: 400.0 mg/kg/injection, schedule: Q04DX003 (ip), vehicle: carboxymethylcellulose (CMC) 90 % of control

CC(C)CC(NC(=O)C(CSCc1ccccc1)NC(=O)OCc1ccccc1)C(=O)OCc1ccccc1 (stereo unspecified) (Cbz-Cys(Bn)-Leu-OBn; configuration not given here)
inactive: dose: 100.0 mg/kg/injection, schedule: Q04DX003 (ip), vehicle: gum acacia 93 % of control | dose: 200.0 mg/kg/injection, schedule: Q04DX003 (ip), vehicle: gum acacia 93 % of control | dose: 400.0 mg/kg/injection, schedule: Q04DX003 (ip), vehicle: gum acacia 91 % of control

CCOC(=O)C1C2CCCC(=O)C21 (stereo unspecified)
inactive: [4] 96 % of control | dose: 200.0 mg/kg/injection, schedule: Q04DX002 (ip), vehicle: Klucel (hydroxypropylcellulose) (HPC) 104 % of control | dose: 400.0 mg/kg/injection, schedule: Q04DX002 (ip), vehicle: Klucel (hydroxypropylcellulose) (HPC) 100 % of control

CC(=O)Nc1ccc2cnn(C(C)=O)c2c1
inactive: dose: 50.0 mg/kg/injection, schedule: Q01DX009 (ip), vehicle: water 94 % of control | dose: 100.0 mg/kg/injection, schedule: Q01DX009 (ip), vehicle: water 98 % of control | dose: 100.0 mg/kg/injection, schedule: Q04DX003 (ip), vehicle: water 104 % of control | dose: 200.0 mg/kg/injection, schedule: Q01DX009 (ip), vehicle: water 100 % of control | dose: 200.0 mg/kg/injection, schedule: Q04DX003 (ip), vehicle: water 94 % of control | dose: 400.0 mg/kg/injection, schedule: Q04DX003 (ip), vehicle: water 106 % of control

CC(=O)OC1C(=O)C(O)C(C)OC1O[C@@H]1C[C@@]2(C)[C@@H]3CC=C4[C@@H](C[C@H](O)C(=O)C4(C)C)[C@]3(C)C(=O)C[C@]2(C)[C@H]1[C@@](C)(O)C(=O)/C=C/C(C)(C)O (stereo partly specified)
inactive: dose: 0.33 mg/kg/injection, schedule: Q01DX009 (ip), vehicle: saline 113 % of control | dose: 0.6 mg/kg/injection, schedule: Q01DX009 (ip), vehicle: saline 106 % of control | dose: 0.67 mg/kg/injection, schedule: Q01DX009 (ip), vehicle: saline 112 % of control | dose: 1.0 mg/kg/injection, schedule: Q01DX009 (ip), vehicle: saline 108 % of control | dose: 1.25 mg/kg/injection, schedule: Q01DX009 (ip), vehicle: saline 120 % of control | dose: 1.5 mg/kg/injection, schedule: Q01DX009 (ip), vehicle: saline 101 % of control | dose: 2.5 mg/kg/injection, schedule: Q01DX009 (ip), vehicle: saline 97 % of control

CC(CC(=O)O)C1Nc2ccccc2S(=O)(=O)C(c2ccccc2)C1=O (stereo unspecified)
inactive: [5] 95 % of control and 100 % of control | [6] 99 % of control

O=S(=O)(O)c1cc(O)c2ccccc2c1
inactive: dose: 100.0 mg/kg/injection, schedule: Q01DX009 (ip), vehicle: saline 90 % of control | [1] 109 % of control | dose: 200.0 mg/kg/injection, schedule: Q01DX009 (ip), vehicle: saline 90 % of control | [2] 109 % of control | dose: 400.0 mg/kg/injection, schedule: Q01DX009 (ip), vehicle: saline 95 % of control | [3] 109 % of control

O=S(=O)(NC1CCCC2C=CC=CC21)c1ccccc1 (stereo unspecified)
inactive: dose: 100.0 mg/kg/injection, schedule: Q01DX009 (ip), vehicle: saline with Tween-80 96 % of control | dose: 100.0 mg/kg/injection, schedule: Q04DX003 (ip), vehicle: saline with Tween-80 93 % of control | dose: 200.0 mg/kg/injection, schedule: Q01DX009 (ip), vehicle: saline with Tween-80 102 % of control | dose: 200.0 mg/kg/injection, schedule: Q04DX003 (ip), vehicle: saline with Tween-80 92 % of control | dose: 400.0 mg/kg/injection, schedule: Q01DX009 (ip), vehicle: saline with Tween-80 88 % of control | dose: 400.0 mg/kg/injection, schedule: Q04DX003 (ip), vehicle: saline with Tween-80 95 % of control

O=C(O)/C(=C\C#Cc1ccccc1)c1ccccc1
inactive: [5] 94 % of control | [6] 100 % of control

Cc1ccc2[nH]c3ccccc3c(=O)c2c1
inactive: dose: 75.0 mg/kg/injection, schedule: Q01DX001 (ip), vehicle: saline 93 % of control | dose: 150.0 mg/kg/injection, schedule: Q01DX001 (ip), vehicle: saline 91 % of control | dose: 300.0 mg/kg/injection, schedule: Q01DX001 (ip), vehicle: saline 90 % of control

C#CC1(OC(N)=O)CCCCC1
inactive: dose: 100.0 mg/kg/injection, schedule: Q01DX009 (ip), vehicle: Klucel (hydroxypropylcellulose) (HPC) 98 % of control | dose: 200.0 mg/kg/injection, schedule: Q01DX009 (ip), vehicle: Klucel (hydroxypropylcellulose) (HPC) 91 % of control | dose: 400.0 mg/kg/injection, schedule: Q01DX009 (ip), vehicle: Klucel (hydroxypropylcellulose) (HPC) 98 % of control

Reference: PubChem BioAssay AID248 (DTP/NCI, 2004)
